Reference: patent publication US20180264282A1, “Specially Designed Kit To Aid Photo-Biologic Eradication Of Staphylococcus Aureus And MRSA In The Nares” (Nomir Medical Technologies, Inc., priority 2017, published 2018)
“And” between values parts separate entries of the source, which are not always exact repeats. Identical values can stand only once. Like-named read-outs stand apart in the source and are kept apart here.

How the values were obtained:
[1] = test system: Staphylococcal furunculosis in the nose; settings: 25% aqueous solution, topical; patients with chronic Staphylococcal furunculosis in the nose; cited from earlier work
S. aureus [2] = assay: summary of clinical nasal decolonization studies using mupirocin treatments; format: in vivo, human; settings: administered three times per day versus twice per day
Description: Overall, the results from clinical studies of nasal decolonization studies using various mupirocin treatments are summarized in the table below: […]

[3] = test system: gram-positive enterococci; settings: cited from earlier work
[4] = test system: gram-negative enterobacteriacea; settings: cited from earlier work
S. aureus [5] = settings: b.i.d. five day regimen; cited from earlier work
pyogenic skin infections = settings: 2% water miscible cream three times per day for five days; assessed day seven; cited from earlier work
S. aureus [6] = settings: cited from earlier work
S. aureus [7] = settings: cited from earlier work; remark: listed apart in the source
MRSA = settings: cited from earlier work
S. aureus [8] = settings: cited from earlier work; remark: listed apart in the source
S. aureus [9] = settings: cited from earlier work; remark: listed apart in the source
S. aureus [10] = settings: in paraffin intra-nasally b.i.d. for five days; 72 hours after therapy; cited from earlier work
[11] = test system: gram-positive bacteria such as S. aureus; settings: cited from earlier work
S. aureus [12] = settings: nasal administration; cited from earlier work
[13] = test system: nasal carriage of staphylococci; settings: in snuff compounds; returned to normal after snuff therapy was discontinued; cited from earlier work
S. aureus [14] = settings: after five days of local treatment to the nose, cited from earlier work
sycosis barbae = settings: cream to skin lesions and nose; cited from earlier work
[15] = test system: impetigo and furunculosis; settings: spray; cited from earlier work
[16] = three weeks after the treatment phase

For `[Cl][Al]([Cl])[Cl]` [aluminum chloride], the treatment outcome [1] is listed as “successful treatment outcome for all”.

In the case of `C/C(=C\C(=O)OCCCCCCCCC(=O)O)C[C@@H]1OC[C@H](C[C@@H]2O[C@H]2[C@@H](C)[C@H](C)O)[C@@H](O)[C@H]1O` [mupirocin], the “outcomes t.i.d. compared with b.i.d.” value (S. aureus [2]) is given as “statistically significantly better outcomes”, the antibacterial activity [3] is given as “not substantial activity” and the antibacterial activity [4] is given as “not substantial activity”. For the same molecule, the “patients with nasal carriage eliminated” value (S. aureus [5]) was “approximately 80%”, the “patients with infection completely cleared” value (pyogenic skin infections) was 43 of the 46 and the effective concentrations (S. aureus [6]) was 0.05 to 0.5 µg/mL. For the same molecule, the “mutant inhibitory concentration (MIC)” value (S. aureus [6]) was 0.05 µg/mL, the “type of effect at MIC” value (S. aureus [6]; within MIC range cells recover in fresh media, higher concentrations needed for bactericidal effect) was “bacteriostatic” and the “patients with S. aureus carriage eliminated from nares” value (S. aureus [7]; 2% in white soft paraffin four times per day, 18 treated) was “all”. The “change in MIC to mupirocin on recolonization” value (S. aureus [7]; [16]) was “without an increase”, the “patients who regained S. aureus in the nares” value (S. aureus [7]; [16]) was “three” and the “treated patients and staff with nasal carriage eliminated” value (MRSA; 2% in paraffin t.i.d. for five days, 40 patients and 32 staff) was “all”. For the same molecule, the “number of patients with MRSA isolated from wrists” value (MRSA; immediately after therapy was completed, from 16 before) was “three”, the “time to elimination of nasal carriage” value (MRSA; usually) was no more than 48 h and the patients recolonized (MRSA; within two weeks after therapy) was “Four”. The “participants with S. aureus eradicated” value (S. aureus [8]; in paraffin t.i.d. for five days, tested four days after the last dose) was 67 of the 69, the “patients recolonized with S. aureus in the nose” value (S. aureus [8]; two weeks post therapy) was “approximately 40%” and the Elimination after trial (S. aureus [9]; 2X-3X per day, 3-8 days) was 97%. For the same molecule, the Elimination after trial (S. aureus [9]; 3X per Day, 5 Days) was 100% and 97%, the Elimination after trial (S. aureus [9]; 4X per Day, 5 Days) was 100% and the Recolonization (S. aureus [9]; at 3 weeks, 4X per Day, 5 Days) was 16% at 3 weeks. The Recolonization (S. aureus [9]; at 4 weeks, 2X per day, 5 days) was 43% at 4 weeks and 22% at 4 weeks and 26% at 4 weeks, the “proportion of hand cultures positive for S. aureus” value (S. aureus [10]) was 2.9% and the antibacterial activity [11] was “antibacterial activity”. The “cross-resistance with other antibiotics” value [11] was “no cross-resistance”.

In the case of `Cc1onc(-c2ccccc2)c1C(=O)N[C@@H]1C(=O)N2[C@@H]1SC(C)(C)[C@@H]2C(=O)O` [oxacillin], the “aerial colonies of S. aureus” value (S. aureus [12]) is listed as “decreased the aerial colonies of S. aureus” and the nasal colonization (S. aureus [12]) is listed as “decreased nasal colonization”.

In the case of `Nc1ccc(S(=O)(=O)Nc2nccs2)cc1` [sulphathiazole], the nasal colonies [13] is listed as “great reduction in nasal colonies”.

In the case of penicillin, the skin carriage (S. aureus [14]; from 57% before) is listed as 38%, the “nasal S. aureus carriage” value (S. aureus [14]; from 97% before) is listed as 37% and the nasal colonies [13] is listed as “great reduction in nasal colonies”. The healing of patients (sycosis barbae) was “all but one patient healed to satisfaction” and the “use in treatment of impetigo and furunculosis” value [15] was “successful”.
